Our source for the IC50 values is patent US11981658B2, “Substituted aminopyridine compounds as EGFR inhibitors” (YUHAN CORPORATION, priority 2021, dated 2024).

One assay concerns the target EGFR Del19/T790M/C797S (Homo sapiens, UniProt P00533, C797S/DEL746-750/T790M). The assay is described as follows: Biochemical EGFR kinase inhibition assay (Lance Ultra TR-FRET), triple mutant del19/T790M/C797S. An outline of the steps: (§1)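 Enzyme reactions lasted 1 hour at room temperature with test compounds between 0.003 and 10 μM, followed by 10 mM EDTA quench.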
A further assay deals with EGFR L858R/T790M/C797S (Homo sapiens, UniProt P00533, C797S/L858R/T790M). The assay is described as follows: Biochemical EGFR kinase inhibition assay (Lance Ultra TR-FRET), triple mutant L858R/T790M/C797S. An outline of the steps:
as §1
On the technique in general: TR-FRET usually uses a lanthanide donor and a delayed reading to cut background.

Another assay deals with EGFR Del19/C797S (Homo sapiens, UniProt P00533, C797S/DEL746-750). The assay is described as follows: Biochemical EGFR kinase inhibition assay (Lance Ultra TR-FRET), double mutant del19/C797S. An outline of the steps:
as §1

The target in a further assay is EGFR L858R/C797S (Homo sapiens, UniProt P00533, C797S/L858R). The assay is described as follows: Biochemical EGFR kinase inhibition assay (Lance Ultra TR-FRET), double mutant L858R/C797S. An outline of the steps:
as §1

The next assay addresses EGFR wildtype (WT) (Homo sapiens, UniProt P00533). The assay is described as follows: Biochemical EGFR kinase inhibition assay (Lance Ultra TR-FRET), wildtype. An outline of the steps: as §1
The mark [1] stands for this setting: IC50 Del19/T790M/C797S (nM), 100 μM ATP.
The mark [2] stands for this setting: Km ATP, read-out: IC50 Del19/T790M/C797S (nM), Km ATP.
Setting [3] is: IC50 L858R/T790M/C797S (nM), 100 μM ATP.
[4] abbreviates: Km ATP, read-out: IC50 L858R/T790M/C797S (nM), Km ATP.
Setting [5] is: IC50 Del19/C797S (nM), 100 μM ATP.
The mark [6] stands for this setting: IC50 L858R/C797S (nM), 100 μM ATP.
Setting [7] is: Km ATP, read-out: IC50 Del19/T790M/C797S (nM) Km ATP.
Where [8] appears, read: Km ATP, read-out: IC50 L858R/T790M/C797S (nM) Km ATP.
Where [9] appears, read: Km ATP, read-out: IC50 Del19/C797S (nM) Km ATP.
The mark [10] stands for this setting: Km ATP, read-out: IC50 L858R/C797S (nM) Km ATP.
Where [11] appears, read: Km ATP, read-out: IC50 WT (nM) Km ATP.

Where two headings read alike, the source gives them in different places.

Chain of EGFR Del19/C797S (P00533 with tags, fused parts or gaps DEL746-750/C797S): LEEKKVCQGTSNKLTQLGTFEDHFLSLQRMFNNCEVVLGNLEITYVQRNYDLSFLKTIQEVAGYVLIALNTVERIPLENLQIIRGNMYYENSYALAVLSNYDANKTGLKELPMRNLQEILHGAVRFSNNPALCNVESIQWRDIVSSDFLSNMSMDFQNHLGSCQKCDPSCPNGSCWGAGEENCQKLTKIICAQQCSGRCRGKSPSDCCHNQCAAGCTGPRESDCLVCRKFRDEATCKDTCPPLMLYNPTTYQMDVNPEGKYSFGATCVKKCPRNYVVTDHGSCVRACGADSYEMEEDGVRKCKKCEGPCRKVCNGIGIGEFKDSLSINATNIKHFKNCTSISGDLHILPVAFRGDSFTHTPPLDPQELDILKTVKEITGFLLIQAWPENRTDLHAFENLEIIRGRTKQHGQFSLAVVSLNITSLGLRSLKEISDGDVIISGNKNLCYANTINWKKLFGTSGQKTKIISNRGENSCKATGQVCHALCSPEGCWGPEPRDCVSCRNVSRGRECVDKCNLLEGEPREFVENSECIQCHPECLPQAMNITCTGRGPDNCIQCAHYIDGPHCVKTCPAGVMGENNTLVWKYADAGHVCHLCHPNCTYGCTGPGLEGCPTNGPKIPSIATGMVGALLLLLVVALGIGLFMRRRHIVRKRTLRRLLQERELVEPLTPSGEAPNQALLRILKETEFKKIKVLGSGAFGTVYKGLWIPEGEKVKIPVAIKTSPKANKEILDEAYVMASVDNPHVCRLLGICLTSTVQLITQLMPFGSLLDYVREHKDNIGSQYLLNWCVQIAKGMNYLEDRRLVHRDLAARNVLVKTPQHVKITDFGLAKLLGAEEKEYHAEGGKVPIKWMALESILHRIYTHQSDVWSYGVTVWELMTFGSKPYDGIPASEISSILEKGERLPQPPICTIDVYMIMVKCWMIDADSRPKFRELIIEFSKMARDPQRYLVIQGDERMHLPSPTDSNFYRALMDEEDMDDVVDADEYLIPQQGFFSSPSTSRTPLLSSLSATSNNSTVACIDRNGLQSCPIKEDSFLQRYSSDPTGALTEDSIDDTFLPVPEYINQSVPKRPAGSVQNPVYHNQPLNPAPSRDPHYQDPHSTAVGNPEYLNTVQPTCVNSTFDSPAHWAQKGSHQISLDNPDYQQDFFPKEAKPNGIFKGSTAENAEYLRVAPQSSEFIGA
Chain of EGFR Del19/T790M/C797S (P00533 with tags, fused parts or gaps DEL746-750/T790M/C797S): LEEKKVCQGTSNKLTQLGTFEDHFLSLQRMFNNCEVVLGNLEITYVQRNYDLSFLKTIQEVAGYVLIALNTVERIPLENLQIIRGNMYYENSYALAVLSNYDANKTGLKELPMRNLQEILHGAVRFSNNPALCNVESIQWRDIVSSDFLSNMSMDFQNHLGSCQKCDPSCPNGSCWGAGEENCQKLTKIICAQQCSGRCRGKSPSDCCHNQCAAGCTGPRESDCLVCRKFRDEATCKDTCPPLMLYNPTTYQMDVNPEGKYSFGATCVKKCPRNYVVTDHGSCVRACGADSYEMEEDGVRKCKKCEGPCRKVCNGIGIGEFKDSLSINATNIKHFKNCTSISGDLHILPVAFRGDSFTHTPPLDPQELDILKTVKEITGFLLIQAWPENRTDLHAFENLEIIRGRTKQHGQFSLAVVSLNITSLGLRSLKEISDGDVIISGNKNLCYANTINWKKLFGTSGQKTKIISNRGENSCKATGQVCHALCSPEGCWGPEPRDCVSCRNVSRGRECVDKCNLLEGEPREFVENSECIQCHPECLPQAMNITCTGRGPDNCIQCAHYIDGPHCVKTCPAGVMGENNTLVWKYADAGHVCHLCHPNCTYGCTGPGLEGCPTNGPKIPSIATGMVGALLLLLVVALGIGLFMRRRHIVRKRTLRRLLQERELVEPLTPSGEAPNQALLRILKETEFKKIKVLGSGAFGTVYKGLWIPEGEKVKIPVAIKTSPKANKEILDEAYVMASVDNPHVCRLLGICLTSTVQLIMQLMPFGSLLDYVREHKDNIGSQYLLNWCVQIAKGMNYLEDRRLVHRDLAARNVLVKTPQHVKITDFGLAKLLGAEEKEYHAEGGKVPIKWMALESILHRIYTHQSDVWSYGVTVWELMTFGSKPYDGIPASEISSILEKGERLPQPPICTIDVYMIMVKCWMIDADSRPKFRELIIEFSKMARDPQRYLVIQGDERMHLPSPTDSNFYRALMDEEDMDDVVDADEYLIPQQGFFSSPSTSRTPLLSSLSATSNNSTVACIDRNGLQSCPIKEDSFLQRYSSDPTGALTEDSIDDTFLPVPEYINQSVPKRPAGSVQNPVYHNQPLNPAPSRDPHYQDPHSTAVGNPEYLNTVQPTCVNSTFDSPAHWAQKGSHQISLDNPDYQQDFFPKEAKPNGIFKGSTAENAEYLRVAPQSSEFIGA
Chain of EGFR wildtype (WT) (P00533 25-1210): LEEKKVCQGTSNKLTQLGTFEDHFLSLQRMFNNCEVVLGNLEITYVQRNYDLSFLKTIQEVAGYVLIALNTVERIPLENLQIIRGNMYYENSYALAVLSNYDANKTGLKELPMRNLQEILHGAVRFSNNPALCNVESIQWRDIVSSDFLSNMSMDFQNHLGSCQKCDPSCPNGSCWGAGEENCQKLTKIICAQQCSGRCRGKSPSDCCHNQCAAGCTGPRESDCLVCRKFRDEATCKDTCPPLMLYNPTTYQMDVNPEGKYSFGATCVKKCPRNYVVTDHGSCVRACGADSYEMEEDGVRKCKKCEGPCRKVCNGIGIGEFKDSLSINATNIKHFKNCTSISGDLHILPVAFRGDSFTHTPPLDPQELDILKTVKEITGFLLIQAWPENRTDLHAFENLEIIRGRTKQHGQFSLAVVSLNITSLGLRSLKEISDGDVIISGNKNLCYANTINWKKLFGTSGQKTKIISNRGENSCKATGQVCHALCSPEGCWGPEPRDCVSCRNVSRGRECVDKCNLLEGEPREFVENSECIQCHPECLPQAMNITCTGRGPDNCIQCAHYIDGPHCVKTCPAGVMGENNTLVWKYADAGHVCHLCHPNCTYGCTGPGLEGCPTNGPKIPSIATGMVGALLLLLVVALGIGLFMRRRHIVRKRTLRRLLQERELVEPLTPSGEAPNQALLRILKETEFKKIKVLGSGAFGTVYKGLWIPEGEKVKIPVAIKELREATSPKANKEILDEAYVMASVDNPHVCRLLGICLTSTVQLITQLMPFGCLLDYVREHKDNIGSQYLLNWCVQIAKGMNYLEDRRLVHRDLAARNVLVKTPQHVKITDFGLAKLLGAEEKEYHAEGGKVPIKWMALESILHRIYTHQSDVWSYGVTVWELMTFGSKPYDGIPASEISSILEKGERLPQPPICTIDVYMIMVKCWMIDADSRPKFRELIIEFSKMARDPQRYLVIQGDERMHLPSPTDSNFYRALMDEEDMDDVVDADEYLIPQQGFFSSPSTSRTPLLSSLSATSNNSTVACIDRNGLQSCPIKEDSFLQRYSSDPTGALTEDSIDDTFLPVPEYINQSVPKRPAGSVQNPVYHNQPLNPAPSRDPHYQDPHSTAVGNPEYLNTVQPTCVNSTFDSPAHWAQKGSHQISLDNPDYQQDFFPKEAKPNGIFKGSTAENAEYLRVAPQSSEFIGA
Chain of EGFR L858R/T790M/C797S (P00533 25-1210 T790M/C797S/L858R): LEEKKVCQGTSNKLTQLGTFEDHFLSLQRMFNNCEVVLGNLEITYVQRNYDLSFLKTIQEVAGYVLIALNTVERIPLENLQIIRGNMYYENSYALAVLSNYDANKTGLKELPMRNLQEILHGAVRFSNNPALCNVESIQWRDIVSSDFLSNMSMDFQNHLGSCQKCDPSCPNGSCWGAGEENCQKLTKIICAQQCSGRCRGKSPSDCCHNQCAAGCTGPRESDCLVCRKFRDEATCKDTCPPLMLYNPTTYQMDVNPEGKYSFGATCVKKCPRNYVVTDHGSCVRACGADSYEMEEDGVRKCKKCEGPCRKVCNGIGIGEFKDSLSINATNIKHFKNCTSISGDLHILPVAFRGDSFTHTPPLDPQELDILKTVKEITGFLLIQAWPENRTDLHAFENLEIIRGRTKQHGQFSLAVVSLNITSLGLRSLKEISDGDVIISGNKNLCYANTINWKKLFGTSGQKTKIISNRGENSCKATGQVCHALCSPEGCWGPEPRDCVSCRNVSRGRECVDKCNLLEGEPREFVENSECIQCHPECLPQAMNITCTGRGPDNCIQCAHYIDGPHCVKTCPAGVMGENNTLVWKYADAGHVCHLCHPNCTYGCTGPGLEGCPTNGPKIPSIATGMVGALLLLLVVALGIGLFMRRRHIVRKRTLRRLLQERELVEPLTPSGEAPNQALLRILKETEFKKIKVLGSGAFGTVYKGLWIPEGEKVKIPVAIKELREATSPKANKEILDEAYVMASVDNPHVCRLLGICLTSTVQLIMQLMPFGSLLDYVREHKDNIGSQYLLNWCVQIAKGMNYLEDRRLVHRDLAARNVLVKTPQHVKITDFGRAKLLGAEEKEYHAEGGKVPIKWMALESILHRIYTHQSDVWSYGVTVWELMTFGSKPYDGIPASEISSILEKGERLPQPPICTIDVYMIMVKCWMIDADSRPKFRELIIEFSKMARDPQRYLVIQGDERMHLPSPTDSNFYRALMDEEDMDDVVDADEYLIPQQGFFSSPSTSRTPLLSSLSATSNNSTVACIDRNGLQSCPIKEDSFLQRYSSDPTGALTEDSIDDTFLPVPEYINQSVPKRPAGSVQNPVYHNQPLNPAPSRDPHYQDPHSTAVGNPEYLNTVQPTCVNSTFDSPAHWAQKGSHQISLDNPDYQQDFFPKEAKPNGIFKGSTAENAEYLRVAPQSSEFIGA

As for `CC1(O)CCN(c2cc(Nc3ccnc(-c4cnn(S(=O)(=O)C5CC5)c4)n3)ncc2C#Cc2ccc(C(=O)N3CCC(O)CC3)cc2)CC1` [Example 442, (4-((6-((2-(1-(Cyclopropylsulfonyl)-1H-pyrazol-4-yl)pyrimidin-4-yl)amino)-4-(4-hydroxy-4-methylpiperidin-1-yl)pyridin-3-yl)ethynyl)phenyl)(4-hydroxypiperidin-1-yl)methanone], the IC50 against EGFR Del19/T790M/C797S (setting [1]) was 0.9 nM; on EGFR Del19/T790M/C797S (setting [2]), 0.7 nM; at EGFR L858R/T790M/C797S (setting [3]) it was 0.3 nM; on EGFR L858R/T790M/C797S (setting [4]) it was 0.1 nM; against EGFR Del19/C797S (setting [5]), 1.3 nM; against EGFR L858R/C797S (setting [6]), 20.3 nM. The IC50 against EGFR wildtype (WT) (IC50 WT (nM), 100 μM ATP) was determined as 9930 nM.

With `CN(C)CC1CCN(c2cc(Nc3ccnc(-c4cnn(S(=O)(=O)C5CC5)c4)n3)ncc2C#Cc2cnn(C3CC3)c2)CC1` [Example 298, N-(5-((1-Cyclopropyl-1H-pyrazol-4-yl)ethynyl)-4-(4-((dimethylamino)methyl)piperidin-1-yl)pyridin-2-yl)-2-(1-(cyclopropylsulfonyl)-1H-pyrazol-4-yl)pyrimidin-4-amine], the IC50 on EGFR Del19/T790M/C797S (ATP at Km, read-out: IC50 Del19/T790M/C797S (nM), Km ATP) worked out at 0.3 nM; on EGFR Del19/T790M/C797S (setting [1]) it was 0.4 nM; at EGFR L858R/T790M/C797S (ATP at Km, read-out: IC50 L858R/T790M/C797S (nM), Km ATP) it was 0.4 nM; against EGFR L858R/T790M/C797S (setting [3]) it was 1.5 nM; at EGFR Del19/C797S (ATP at Km, read-out: IC50 Del19/C797S (nM), Km ATP) it was 5.3 nM; against EGFR Del19/C797S (setting [5]), 12 nM. Besides, the IC50 on EGFR L858R/C797S (ATP at Km, read-out: IC50 L858R/C797S (nM), Km ATP) was 18.5 nM; against EGFR L858R/C797S (setting [6]), 140 nM; on EGFR wildtype (WT) (ATP at Km, read-out: IC50 WT (nM), Km ATP) it was 23 nM; against EGFR wildtype (WT) (IC50 WT (nM), 100 μM ATP), over 10000 nM.

As for `CC1(CO)CCN(c2cc(Nc3ccnc(-c4cnn(S(=O)(=O)C5CC5)c4)n3)ncc2C#Cc2cnn3c2CNCC3)CC1` [Example 149, (1-(2-((2-(1-(Cyclopropylsulfonyl)-1H-pyrazol-4-yl)pyrimidin-4-yl)amino)-5-((4,5,6,7-tetrahydropyrazolo[1,5-a]pyrazin-3-yl)ethynyl)pyridin-4-yl)-4-methylpiperidin-4-yl)methanol], the IC50 was 0.4 nM against EGFR Del19/T790M/C797S (setting [1]); 0.2 nM on EGFR Del19/T790M/C797S (setting [7]); 0.2 nM against EGFR L858R/T790M/C797S (setting [3]); 0.1 nM on EGFR L858R/T790M/C797S (setting [8]); 0.4 nM at EGFR Del19/C797S (setting [5]); 0.2 nM at EGFR Del19/C797S (setting [9]). In addition, the IC50 on EGFR L858R/C797S (setting [6]) was 3.4 nM; on EGFR L858R/C797S (setting [10]), 0.3 nM; at EGFR wildtype (WT) (IC50 WT (nM), 100 μM ATP), 853 nM; on EGFR wildtype (WT) (setting [11]) it was 1.6 nM.

For `CN(C)CCn1cc(C#Cc2cnc(Nc3ccnc(-c4cnn(S(=O)(=O)C5CC5)c4)n3)cc2N2CCC(C)(CO)CC2)cn1` [Example 116, (1-(2-((2-(1-(Cyclopropylsulfonyl)-1H-pyrazol-4-yl)pyrimidin-4-yl)amino)-5-((1-(2-(dimethylamino)ethyl)-1H-pyrazol-4-yl)ethynyl)pyridin-4-yl)-4-methylpiperidin-4-yl)methanol], the IC50 was found to be 0.4 nM against EGFR Del19/T790M/C797S (setting [1]); 0.3 nM at EGFR Del19/T790M/C797S (setting [7]); 0.3 nM against EGFR L858R/T790M/C797S (setting [3]); 0.2 nM at EGFR L858R/T790M/C797S (setting [8]); 0.6 nM on EGFR Del19/C797S (setting [5]); 0.3 nM at EGFR Del19/C797S (setting [9]). In addition, the IC50 on EGFR L858R/C797S (setting [6]) stood at 1 nM; on EGFR L858R/C797S (setting [10]), 0.2 nM; against EGFR wildtype (WT) (IC50 WT (nM), 100 μM ATP), 143 nM; on EGFR wildtype (WT) (setting [11]), 1 nM.

Consider `CS(=O)(=O)N1CCC(C#Cc2cnc(Nc3ccnc(-c4cnn(S(=O)(=O)C5CC5)c4)n3)cc2NCC2CCC(CO)CC2)C1` (centres unmarked) [Example 400, ((1r,4r)-4-(((2-((2-(1-(Cyclopropylsulfonyl)-1H-pyrazol-4-yl)pyrimidin-4-yl)amino)-5-((1-(methylsulfonyl)pyrrolidin-3-yl)ethynyl)pyridin-4-yl)amino)methyl)cyclohexyl)methanol], for which the IC50 against EGFR Del19/T790M/C797S (setting [1]) was 19.3 nM; on EGFR Del19/T790M/C797S (setting [2]) it was 34 nM; against EGFR L858R/T790M/C797S (setting [3]), 22.5 nM; at EGFR L858R/T790M/C797S (setting [4]), 26.1 nM; at EGFR Del19/C797S (setting [5]), 35.6 nM; at EGFR Del19/C797S (Km ATP, read-out: IC50 Del19/C797S (nM), Km ATP), 12.8 nM. Moreover, the IC50 against EGFR L858R/C797S (setting [6]) is 1570 nM; on EGFR L858R/C797S (Km ATP, read-out: IC50 L858R/C797S (nM), Km ATP), 17.9 nM; against EGFR wildtype (WT) (IC50 WT (nM), 100 μM ATP), over 10000 nM; on EGFR wildtype (WT) (Km ATP, read-out: IC50 WT (nM), Km ATP), 310 nM.
